Experimental data: patent publication US12667546B2, “Methods for manipulating cell state transitions in cancer” (AGENCY FOR SCIENCE, TECHNOLOGY AND RESEARCH, priority 2018, dated 2026)
Entries after “also recorded” stand apart in the source; their conditions may differ.

System: NAMEC8
Assay: Expression of EMT and lineage markers (qRT-PCR, immunoblot, immunofluorescence) in NAMEC8
Format: cell-based, human
Outline: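 qRT-PCR on Trizol/RNeasy RNA (500 ng into cDNA, 37 °C 2 h), normalized to GAPDH. Immunoblots used 50-80 μg RIPA lysate on 4-12% Bis-Tris gels with ECL detection. Immunofluorescence was on paraformaldehyde-fixed, Triton-permeabilized cells with Alexa Fluor-488/-594 secondaries and DAPI, imaged by epifluorescence at 100-200×.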

What does the source list for C=C(c1ccc(C(=O)O)cc1)c1cc2c(cc1C)C(C)(C)CCC2(C)C [Bexarotene]?
MET phenotype: induction and durability after drug withdrawal (drugs removed for at least seven days): gradually reverted to a more mesenchymal cell phenotype; also recorded: could cause an MET; expression of EMT and basal/luminal markers (transcript and protein): downregulation of mesenchymal signature markers (ZEB1, SERPINE1, FN1, SLUG) and the concomitant gain of epithelial marker CDH1
